Data set [1] in a line: Polymorph screening of solid state drug substances (Table 23). The following applies: stirred 50 °C 72 hours; for Dry method and appearance: dried solid. The data set is classed as physicochemical.
A short description of data set [2]: Solubility determination in oil (Table 10). The following applies: thermodynamic from solid; for solubility thermodynamic: water, Equilibrium solubility: Water; for solubility at 24 h: 25 °C, Obs. Temp. 25 °C. The protocol: A known amount of test substance (˜40 mg) was weighed into the vial, 100 μL of oil was added and heated to 60° C. and then system was slurried to reach equilibrium. […] Extra oil was added into the vial once compound precipitated out and then the system was re-equilibrated at 1000 rpm at room temperature (25° C.). Final concentration was determined by HPLC method as described below in Table 6a and 6b.

Setting [3] is: 40 °C, oil or lipid, Approximate Solubility in Excipient: Cottonseed oil, Heating Temp. 40 °C, Obs. Temp. 40 °C.
The mark [4] stands for this setting: 40 °C, oil or lipid, Approximate Solubility in Excipient: Cottonseed oil, Heating Temp. 60 °C, Obs. Temp. 40 °C.
Setting [5] is: 40 °C, oil or lipid, Approximate Solubility in Excipient: Sesame oil, Heating Temp. 40 °C, Obs. Temp. 40 °C.
[6] abbreviates: 40 °C, oil or lipid, Approximate Solubility in Excipient: Sesame oil, Heating Temp. 60 °C, Obs. Temp. 40 °C.
Where [7] appears, read: 40 °C, organic solvent or mixture, Approximate Solubility in Excipient: Ethanol, Heating Temp. 40 °C, Obs. Temp. 40 °C.
Setting [8] is: 40 °C, Heating Temp. 40 °C, Obs. Temp. 40 °C.
[9] abbreviates: after slurry in EtOAc, temperatures N/A.
The mark [10] stands for this setting: after slurry in Heptane, temperatures N/A.
[11] abbreviates: oil or lipid, Approximate Solubility in Excipient: Cottonseed oil, Heating Temp. 60 °C.
The mark [12] stands for this setting: oil or lipid, Approximate Solubility in Excipient: Sesame oil, Heating Temp. 60 °C.
The mark [13] stands for this setting: 40 °C, organic solvent or mixture, Approximate Solubility in Excipient: Ethanol, Heating Temp. 60 °C, Obs. Temp. 40 °C.
The mark [14] stands for this setting: 40 °C, Heating Temp. 60 °C, Obs. Temp. 40 °C.

Molecules are shown by their SMILES. Values after ≈ are worked out from the molar mass of the structure shown.

Take `C=C1CC[C@@]2(O)C3Cc4ccc(OC(=O)CCCCCCCCCCCCCCCCCCCCC)c5c4[C@@]2(CCN3CC2CC2)[C@H]1O5` [Compound 14, (4aS,7aS,12bS)-3-(cyclopropylmethyl)-4a-hydroxy-7-methylene-2,3,4,4a,5,6,7,7a-octahydro-1H-4,12-methanobenzofuro[3,2-e]isoquinolin-9-yl docosanoate]: the “XRPD results (Dried)” value is listed as “Pattern A” in data set [1] (Acetone); “Pattern A” in data set [1] (EtOAc); “Pattern B” in data set [1] (Heptane); “Pattern A” in data set [1] (Isopropanol); “Pattern A” in data set [1] (MTBE). Besides, the “Dry method and appearance” value is listed as “Evaporation/white powder” in data set [1] (Acetone); “Evaporation/white powder” in data set [1] (EtOAc); “Centrifugation/white powder” in data set [1] (Heptane); “Evaporation/white powder” in data set [1] (Isopropanol); “Evaporation/white powder” in data set [1] (MTBE). Besides, the solubility (usually the concentration that dissolves in the medium under given conditions) is below 50 mg/mL in data set [2] (setting [3]); below 25 mg/mL in data set [2] (setting [4]); below 51 mg/mL in data set [2] (setting [5]); below 25 mg/mL in data set [2] (setting [6]); 69 to 83 mg/mL (≈ 104 to 125 mM) in data set [2] (setting [7]). Further, the thermodynamic solubility (as a rule, the concentration in solution at equilibrium with solid) in data set [2] (setting [8]) is 0.01 mg/mL (≈ 0.0151 mM); in data set [2] (setting [9]) it was below 0.0005 mg/mL; in data set [2] (setting [10]), below 0.0005 mg/mL.
With `C=C1CC[C@@]2(O)C3Cc4ccc(OC(=O)OCCCCCCCCCCCCCCCC)c5c4[C@@]2(CCN3CC2CC2)[C@H]1O5` [Compound 19, (4aS,7aS,12bS)-3-(cyclopropylmethyl)-4a-hydroxy-7-methylene-2,3,4,4a,5,6,7,7a-octahydro-1H-4,12-methanobenzofuro[3,2-e]isoquinolin-9-yl hexadecyl carbonate], the “XRPD results (Dried)” value in data set [1] (Acetone), in data set [1] (EtOAc), in data set [1] (Heptane), in data set [1] (Isopropanol) and in data set [1] (MTBE) was “Pattern A” each time. Besides, the “Dry method and appearance” value in data set [1] (Acetone), in data set [1] (EtOAc), in data set [1] (Heptane), in data set [1] (Isopropanol) and in data set [1] (MTBE) was “Evaporation/white powder” throughout. The solubility fell in the range of 67 to 80 mg/mL (≈ 110 to 132 mM) in data set [2] (setting [3]), 103 to 137 mg/mL (≈ 169 to 225 mM) in data set [2] (setting [5]) and 27 to 42 mg/mL (≈ 44.4 to 69.1 mM) in data set [2] (setting [7]). The solubility (thermodynamic) in data set [2] (setting [8]) was 0.0468 mg/mL (≈ 0.077 mM).
Regarding `CCCCCCCCCCCCCCCC(=O)Oc1ccc2c3c1O[C@H]1C(=O)CC[C@@]4(O)C(C2)N(CC2CC2)CC[C@]314` [Compound 55, (4aS,7aR,12bS)-3-(cyclopropylmethyl)-4a-hydroxy-7-oxo-2,3,4,4a,5,6,7,7a-octahydro-1H-4,12-methanobenzofuro[3,2-e]isoquinolin-9-yl palmitate], the “XRPD results (Dried)” value in data set [1] (Acetone), in data set [1] (EtOAc), in data set [1] (Heptane), in data set [1] (Isopropanol) and in data set [1] (MTBE) was “Pattern B” each time. The “Dry method and appearance” value in data set [1] (Acetone), in data set [1] (EtOAc), in data set [1] (Heptane), in data set [1] (Isopropanol) and in data set [1] (MTBE) was “Evaporation/white powder” throughout. Moreover, the solubility at 24 h in data set [2] (setting [11]) and in data set [2] (setting [12]) was below 50 mg/mL in each case. The figures for the solubility in data set [2] (setting [4]), in data set [2] (setting [6]) and in data set [2] (setting [13]) were above 400 mg/mL, above 395 mg/mL and above 401 mg/mL, respectively. Also, the solubility (thermodynamic) in data set [2] (setting [14]) is 0.0066 mg/mL (≈ 0.0114 mM); in data set [2] (setting [9]), below 0.0005 mg/mL.
As to `CCCCCCCCCCCCOC(=O)Oc1ccc2c3c1O[C@H]1C(=O)CC[C@@]4(O)C(C2)N(CC2CC2)CC[C@]314` [Compound 11, (4aS,7aR,12bS)-3-(cyclopropylmethyl)-4a-hydroxy-7-oxo-2,3,4,4a,5,6,7,7a-octahydro-1H-4,12-methanobenzofuro[3,2-e]isoquinolin-9-yl dodecyl carbonate], the “XRPD results (Dried)” value in data set [1] (Acetone) is “Pattern A”; in data set [1] (EtOAc) it was “Pattern A”; in data set [1] (Heptane), “Pattern B”; in data set [1] (Isopropanol) it was “Pattern A”; in data set [1] (MTBE), “Pattern A”. In addition, the “Dry method and appearance” value in data set [1] (Acetone), in data set [1] (EtOAc), in data set [1] (Heptane), in data set [1] (Isopropanol) and in data set [1] (MTBE) was “Evaporation/white powder” in each case. The solubility at 24 h is below 51 mg/mL in data set [2] (setting [11]) and below 50 mg/mL in data set [2] (setting [12]). For the same compound, the results for the solubility in data set [2] (setting [3]), in data set [2] (setting [5]) and in data set [2] (setting [7]) were above 407 mg/mL, above 407 mg/mL and above 218 mg/mL, respectively. For the same compound, the thermodynamic solubility in data set [2] (setting [8]) was found to be 0.0005 mg/mL (≈ 0.000903 mM); in data set [2] (setting [10]) it was 0.0026 mg/mL (≈ 0.0047 mM).
Take `C=C1CC[C@@]2(O)C3Cc4ccc(OC(=O)CCCCCCCCCCCCCCCCCCC)c5c4[C@@]2(CCN3CC2CC2)[C@H]1O5` [Compound 16, (4aS,7aS,12bS)-3-(cyclopropylmethyl)-4a-hydroxy-7-methylene-2,3,4,4a,5,6,7,7a-octahydro-1H-4,12-methanobenzofuro[3,2-e]isoquinolin-9-yl icosanoate]: the “XRPD results (Dried)” value in data set [1] (Acetone), in data set [1] (EtOAc), in data set [1] (Heptane), in data set [1] (Isopropanol) and in data set [1] (MTBE) was “Pattern A” each time. For the same compound, the “Dry method and appearance” value in data set [1] (Acetone) was “Evaporation/white powder”; in data set [1] (EtOAc), “Evaporation/white powder”; in data set [1] (Heptane), “Centrifugation/white powder”; in data set [1] (Isopropanol), “Centrifugation/white powder”; in data set [1] (MTBE) it was “Evaporation/white powder”. The solubility is 57 to 67 mg/mL (≈ 89.9 to 106 mM) in data set [2] (setting [3]); 201 to 403 mg/mL (≈ 317 to 636 mM) in data set [2] (setting [4]); 68 to 81 mg/mL (≈ 107 to 128 mM) in data set [2] (setting [5]); 202 to 404 mg/mL (≈ 319 to 637 mM) in data set [2] (setting [6]); below 25 mg/mL in data set [2] (setting [7]). The solubility (thermodynamic) came to 0.206 mg/mL (≈ 0.325 mM) in data set [2] (setting [8]) and 0.011 mg/mL (≈ 0.0174 mM) in data set [2] (setting [14]).
As for `C=C1CC[C@@]2(O)C3Cc4ccc(OC(=O)OCCCCCCCCCCCCCC)c5c4[C@@]2(CCN3CC2CC2)[C@H]1O5` [Compound 31, (4aS,7aS,12bS)-3-(cyclopropylmethyl)-4a-hydroxy-7-methylene-2,3,4,4a,5,6,7,7a-octahydro-1H-4,12-methanobenzofuro[3,2-e]isoquinolin-9-yl tetradecyl carbonate], the “XRPD results (Dried)” value in data set [1] (Acetone), in data set [1] (EtOAc), in data set [1] (Heptane), in data set [1] (Isopropanol) and in data set [1] (MTBE) was “Pattern A” each time. For the same compound, the “Dry method and appearance” value in data set [1] (Acetone), in data set [1] (EtOAc), in data set [1] (Heptane), in data set [1] (Isopropanol) and in data set [1] (MTBE) was “Evaporation/white powder” each time. In addition, the solubility at 24 h in data set [2] (setting [11]) was above 417 mg/mL; in data set [2] (setting [12]), above 414 mg/mL. In data set [2] (setting [8]), this compound yielded a thermodynamic solubility below 0.001 mg/mL.
Regarding `CCCCCCCCCCCCCCCCOC(=O)Oc1ccc2c3c1O[C@H]1C(=O)CC[C@@]4(O)C(C2)N(CC2CC2)CC[C@]314` [Compound 21, (4aS,7aR,12bS)-3-(cyclopropylmethyl)-4a-hydroxy-7-oxo-2,3,4,4a,5,6,7,7a-octahydro-1H-4,12-methanobenzofuro[3,2-e]isoquinolin-9-yl hexadecyl carbonate], the “XRPD results (Dried)” value in data set [1] (Acetone), in data set [1] (EtOAc), in data set [1] (Heptane), in data set [1] (Isopropanol) and in data set [1] (MTBE) was “Pattern A” in each case. In addition, the “Dry method and appearance” value in data set [1] (Acetone), in data set [1] (EtOAc), in data set [1] (Heptane), in data set [1] (Isopropanol) and in data set [1] (MTBE) was “Evaporation/white powder” in each case. For the same compound, the results for the solubility in data set [2] (setting [4]), in data set [2] (setting [6]) and in data set [2] (setting [13]) were 101 to 135 mg/mL (≈ 166 to 221 mM), 101 to 134 mg/mL (≈ 166 to 221 mM) and 50 to 100 mg/mL (≈ 82 to 164 mM), respectively. Further, the solubility (thermodynamic) in data set [2] (setting [14]) is 0.0006 mg/mL (≈ 0.000984 mM).

Source of the values: patent US20190308988A1, “OPIOID RECEPTOR ANTAGONIST PRODRUGS” (Nirsum Laboratories, Inc., priority 2017, published 2019).
